# Data reported in patent publication US20230333121A1, “METHODS AND COMPOSITIONS RELATING TO BIOMARKERS FOR NEURODEGENERATIVE DISEASES” (ANACALYPSIS THERAPEUTICS, IKE, priority 2020, published 2023).
# Target: T1, pS935-LRRK2 (Homo sapiens, UniProt Q5S007)
# T1 construct: fresh PBMCs from healthy volunteer donors; endogenous in cells; host or cells: fresh and cryopreserved PBMCs from healthy volunteer donors
# Test: pS935-LRRK2 ELISA on freshly isolated PBMCs from healthy volunteers
# Type: cell-based
# Settings: increasing concentrations, 1 hour (FIG. 3C)
# Protocol: Phosphorylation of LRRK2 at the Ser935 residue by ELISA was assessed. For each sample, the signal corresponding to pS935-LRRK2 was normalized to its corresponding value of total LRRK2 (in ng/ml). Increasing amounts of recombinant human full-length LRRK2 was bound to parallel ELISA plates using the c41-2 clone for capture, and detected using total (N241A; for normalization) or phosphorylated (pS935-LRRK2, UDD2) antibodies (FIG. 3A). […] Freshly isolated PBMCs from healthy volunteers were treated with increasing concentrations of the kinase inhibitor PF-475 for 1 hour, and subjected to pS935-LRRK2 ELISA (FIG. 3C). […] In contrast, in PBMC extracts from carriers of the G2019S mutation, with and without PD, there was a non-significant trend towards lower levels of pS935-LRRK2 compared to healthy controls (FIG. 3E). The values of all G2019S carriers are pooled for comparison against healthy controls (FIG. 3F). Levels of pS935-LRRK2 and various clinical parameters were compared (FIG. 3G). In iPD patients, there was no correlation between pS935-LRRK2 and the motor function scale UPDRS-III (not shown); however, performance on the cognitive function test, MoCA, was negatively correlated with pS935-LRRK2 levels in iPD patients (FIG. 3G; right panel) and healthy controls (FIG. 3G; center panel).
# T1 sequence (Q5S007 whole entry): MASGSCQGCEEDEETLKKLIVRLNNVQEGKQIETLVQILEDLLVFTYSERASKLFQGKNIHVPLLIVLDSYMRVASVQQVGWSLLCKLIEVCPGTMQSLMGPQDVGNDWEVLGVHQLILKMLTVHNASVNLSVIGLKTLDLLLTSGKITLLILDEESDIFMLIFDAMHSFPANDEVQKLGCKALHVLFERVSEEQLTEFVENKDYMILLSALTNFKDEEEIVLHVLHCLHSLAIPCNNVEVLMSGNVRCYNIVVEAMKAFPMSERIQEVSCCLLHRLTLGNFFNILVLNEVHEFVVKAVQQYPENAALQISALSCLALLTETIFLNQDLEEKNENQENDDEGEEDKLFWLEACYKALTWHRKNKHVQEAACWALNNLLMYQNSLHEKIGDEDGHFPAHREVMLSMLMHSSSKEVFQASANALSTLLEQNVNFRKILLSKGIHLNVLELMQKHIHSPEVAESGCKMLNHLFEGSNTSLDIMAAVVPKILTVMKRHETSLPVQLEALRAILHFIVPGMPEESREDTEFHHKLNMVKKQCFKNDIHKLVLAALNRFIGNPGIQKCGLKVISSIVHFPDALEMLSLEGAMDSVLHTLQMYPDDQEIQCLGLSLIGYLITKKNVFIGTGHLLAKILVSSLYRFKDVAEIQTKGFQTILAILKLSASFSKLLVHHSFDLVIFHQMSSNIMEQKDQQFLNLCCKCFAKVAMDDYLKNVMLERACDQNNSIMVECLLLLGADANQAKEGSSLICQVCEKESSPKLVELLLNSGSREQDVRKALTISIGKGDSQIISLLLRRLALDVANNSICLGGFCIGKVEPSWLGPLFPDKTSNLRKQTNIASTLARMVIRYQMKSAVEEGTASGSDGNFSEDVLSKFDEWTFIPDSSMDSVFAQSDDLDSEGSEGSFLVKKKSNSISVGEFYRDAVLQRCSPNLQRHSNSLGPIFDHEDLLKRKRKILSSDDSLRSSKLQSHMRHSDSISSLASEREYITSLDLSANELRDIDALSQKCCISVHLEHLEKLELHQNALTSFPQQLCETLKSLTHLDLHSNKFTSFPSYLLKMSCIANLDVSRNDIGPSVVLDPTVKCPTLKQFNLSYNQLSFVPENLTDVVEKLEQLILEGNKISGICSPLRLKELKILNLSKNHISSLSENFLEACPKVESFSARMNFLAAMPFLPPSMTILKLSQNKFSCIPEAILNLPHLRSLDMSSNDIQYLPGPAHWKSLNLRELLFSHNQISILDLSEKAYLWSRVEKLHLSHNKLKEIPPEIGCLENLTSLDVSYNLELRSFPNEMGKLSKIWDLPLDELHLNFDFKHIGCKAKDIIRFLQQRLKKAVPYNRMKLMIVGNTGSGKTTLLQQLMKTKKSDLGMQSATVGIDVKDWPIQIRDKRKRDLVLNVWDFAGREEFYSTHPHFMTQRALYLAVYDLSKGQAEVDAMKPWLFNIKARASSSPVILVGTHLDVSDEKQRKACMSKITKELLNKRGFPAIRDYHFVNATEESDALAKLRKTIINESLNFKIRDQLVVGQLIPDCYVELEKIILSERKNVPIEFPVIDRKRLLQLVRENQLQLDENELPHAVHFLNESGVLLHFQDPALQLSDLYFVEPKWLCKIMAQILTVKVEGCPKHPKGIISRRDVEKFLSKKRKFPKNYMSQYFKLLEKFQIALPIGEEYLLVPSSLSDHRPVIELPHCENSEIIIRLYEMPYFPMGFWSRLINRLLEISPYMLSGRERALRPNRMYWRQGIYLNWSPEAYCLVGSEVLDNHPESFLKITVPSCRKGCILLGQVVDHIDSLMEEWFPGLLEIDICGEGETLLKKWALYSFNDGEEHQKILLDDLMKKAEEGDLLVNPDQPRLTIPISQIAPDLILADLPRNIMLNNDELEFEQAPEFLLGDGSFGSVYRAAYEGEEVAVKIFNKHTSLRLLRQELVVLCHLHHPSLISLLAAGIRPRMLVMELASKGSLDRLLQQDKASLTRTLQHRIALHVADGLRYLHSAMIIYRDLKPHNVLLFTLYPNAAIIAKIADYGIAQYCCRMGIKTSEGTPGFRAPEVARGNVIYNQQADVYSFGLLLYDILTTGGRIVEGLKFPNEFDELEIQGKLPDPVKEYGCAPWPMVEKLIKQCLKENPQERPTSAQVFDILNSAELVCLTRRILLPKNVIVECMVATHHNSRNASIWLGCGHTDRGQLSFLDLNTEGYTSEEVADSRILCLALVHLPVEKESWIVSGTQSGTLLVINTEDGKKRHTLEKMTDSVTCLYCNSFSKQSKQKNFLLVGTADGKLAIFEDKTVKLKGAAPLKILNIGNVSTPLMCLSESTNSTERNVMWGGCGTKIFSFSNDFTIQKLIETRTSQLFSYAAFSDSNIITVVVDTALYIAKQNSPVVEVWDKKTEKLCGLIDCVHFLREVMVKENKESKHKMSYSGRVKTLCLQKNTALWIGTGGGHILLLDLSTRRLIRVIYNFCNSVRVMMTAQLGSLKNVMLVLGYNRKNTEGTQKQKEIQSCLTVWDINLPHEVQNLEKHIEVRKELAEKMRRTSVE
structure (smiles),measurement,value
N#Cc1cccc(-c2c[nH]c3ncnc(N4CCOCC4)c23)c1 [PF-475],phosphorylated LRRK2 (pS935-LRRK2) level,significant dose-dependent loss
